Reference: patent publication US6943183B2 (Pfizer Inc, priority 2000, dated 2005)

Target: T1, SF9 affinity purified rat FPT (Rattus norvegicus, UniProt Q02293+Q04631)
T1 construct: made in house; host or cells: Sf9 insect cells
Assay: PFT (FPT) inhibitory activity assay, radiolabeled farnesyl pyrophosphate and biotinyl peptide, streptavidin beads
Format: biochemical
Conditions: HEPES buffer pH 7.4, 30° C., 30 minutes; read-out: FTase IC50
In short: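 Rat FPT expressed in SF9 cells was incubated 30 minutes at 30° C. with compound (in 10% DMSO), radiolabeled farnesyl pyrophosphate and biotinylated peptide. Buffer: HEPES pH 7.4, ZnCl2 20 μM, MgCl2 and DTT 5 mM each, 0.1% PEG 8000, 5 mM potassium phosphate (also run without phosphate). Product captured on streptavidin beads in magnesium acetate/H3PO4 stop buffer.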

IC50 [pM] | SMILES
200 | O=C(NC1CCCC1)c1ccc(SCc2c(O[C@H](Cn3ccnc3)c3ccccc3)ccc3c2CCCC3=O)cc1 [Compound 220, N-Cyclopentyl-4-{[(2-{[(1S)-2-(1H-imidazol-1-yl)-1-phenylethyl]oxy}-5-oxo-5,6,7,8-tetrahydro-1-naphthalenyl)methyl]sulfanyl}benzamide]
200 | O=C(NC1CCCC1)c1cccc(SCc2c(O[C@H](Cn3ccnc3)c3ccccc3)ccc3c2CCCC3=O)c1 [Compound 221, N-Cyclopentyl-3-{[(2-{[(1S)-2-(1H-imidazol-1-yl)-1-phenylethyl]oxy}-5-oxo-5,6,7,8-tetrahydro-1-naphthalenyl)methyl]sulfanyl}benzamide]
200 | O=C(NC1CCCC1)c1ccccc1SCc1c(O[C@H](Cn2ccnc2)c2ccccc2)ccc2c1CCCC2=O [Compound 222, N-Cyclopentyl-2-{[(2-{[(1S)-2-(1H-imidazol-1-yl)-1-phenylethyl]oxy}-5-oxo-5,6,7,8-tetrahydro-1-naphthalenyl)methyl]sulfanyl}benzamide]
240 | O=C(NC1CC1)c1ccc(S(=O)(=O)Cc2c(O[C@H](Cn3ccnc3)c3ccccc3)ccc3c2CCCC3=O)cc1 [Compound 223, N-Cyclopropyl-4-{[(2-{[(1S)-2-(1H-imidazol-1-yl)-1-phenylethyl]oxy}-5-oxo-5,6,7,8-tetrahydro-1-naphthalenyl)methyl]sulfonyl}benzamide]
200 | O=C(NC1CC1)c1cccc(S(=O)(=O)Cc2c(O[C@H](Cn3ccnc3)c3ccccc3)ccc3c2CCCC3=O)c1 [Compound 224, N-Cyclopropyl-3-{[(2-{[(1S)-2-(1H-imidazol-1-yl)-1-phenylethyl]oxy}-5-oxo-5,6,7,8-tetrahydro-1-naphthalenyl)methyl]sulfonyl}benzamide]
200 | O=C(NC1CC1)c1ccccc1S(=O)(=O)Cc1c(O[C@H](Cn2ccnc2)c2ccccc2)ccc2c1CCCC2=O [Compound 225, N-Cyclopropyl-2-{[(2-{[(1S)-2-(1H-imidazol-1-yl)-1-phenylethyl]oxy}-5-oxo-5,6,7,8-tetrahydro-1-naphthalenyl)methyl]sulfonyl}benzamide]
200 | O=C(NC1CC1)c1ccc(SCc2c(O[C@H](Cn3ccnc3)c3ccccc3)ccc3c2CCCC3=O)cc1 [Compound 226, N-Cyclopropyl-4-{[(2-{[(1S)-2-(1H-imidazol-1-yl)-1-phenylethyl]oxy}-5-oxo-5,6,7,8-tetrahydro-1-naphthalenyl)methyl]sulfanyl}benzamide]
200 | O=C(NC1CC1)c1cccc(SCc2c(O[C@H](Cn3ccnc3)c3ccccc3)ccc3c2CCCC3=O)c1 [Compound 227, N-Cyclopropyl-3-{[(2-{[(1S)-2-(1H-imidazol-1-yl)-1-phenylethyl]oxy}-5-oxo-5,6,7,8-tetrahydro-1-naphthalenyl)methyl]sulfanyl}benzamide]
200 | O=C(NC1CC1)c1ccccc1SCc1c(O[C@H](Cn2ccnc2)c2ccccc2)ccc2c1CCCC2=O [Compound 228, N-Cyclopropyl-2-{[(2-{[(1S)-2-(1H-imidazol-1-yl)-1-phenylethyl]oxy}-5-oxo-5,6,7,8-tetrahydro-1-naphthalenyl)methyl]sulfanyl}benzamide]
550 | O=C(NCc1ccco1)c1ccc(S(=O)(=O)Cc2c(O[C@H](Cn3ccnc3)c3ccccc3)ccc3c2CCCC3=O)cc1 [Compound 229, N-(2-Furylmethyl)-4-{[(2-{[(1S)-2-(1H-imidazol-1-yl)-1-phenylethyl]oxy}-5-oxo-5,6,7,8-tetrahydro-1-naphthalenyl)methyl]sulfonyl}benzamide]
200 | O=C(NCc1ccco1)c1cccc(S(=O)(=O)Cc2c(O[C@H](Cn3ccnc3)c3ccccc3)ccc3c2CCCC3=O)c1 [Compound 230, N-(2-Furylmethyl)-3-{[(2-{[(1S)-2-(1H-imidazol-1-yl)-1-phenylethyl]oxy}-5-oxo-5,6,7,8-tetrahydro-1-naphthalenyl)methyl]sulfonyl}benzamide]
200 | O=C(NCc1ccco1)c1ccccc1S(=O)(=O)Cc1c(O[C@H](Cn2ccnc2)c2ccccc2)ccc2c1CCCC2=O [Compound 231, N-(2-Furylmethyl)-2-{[(2-{[(1S)-2-(1H-imidazol-1-yl)-1-phenylethyl]oxy}-5-oxo-5,6,7,8-tetrahydro-1-naphthalenyl)methyl]sulfonyl}benzamide]
200 | O=C(NC(CO)CO)c1ccccc1SCc1c(O[C@H](Cn2ccnc2)c2ccccc2)ccc2c1CCCC2=O [Compound 232, N-[2-Hydroxy-1-(hydroxymethyl)ethyl]-2-{[(2-{[(1S)-2-(1H-imidazol-1-yl)-1-phenylethyl]oxy}-5-oxo-5,6,7,8-tetrahydro-1-naphthalenyl)methyl]sulfanyl}benzamide]
450 | O=C(NC(CO)CO)c1ccc(SCc2c(O[C@H](Cn3ccnc3)c3ccccc3)ccc3c2CCCC3=O)cc1 [Compound 233, N-[2-Hydroxy-1-(hydroxymethyl)ethyl]-4-{[(2-{[(1S)-2-(1H-imidazol-1-yl)-1-phenylethyl]oxy}-5-oxo-5,6,7,8-tetrahydro-1-naphthalenyl)methyl]sulfanyl}benzamide]
250 | O=C(NC(CO)CO)c1cccc(SCc2c(O[C@H](Cn3ccnc3)c3ccccc3)ccc3c2CCCC3=O)c1 [Compound 234, N-[2-Hydroxy-1-(hydroxymethyl)ethyl]-3-{[(2-{[(1S)-2-(1H-imidazol-1-yl)-1-phenylethyl]oxy}-5-oxo-5,6,7,8-tetrahydro-1-naphthalenyl)methyl]sulfanyl}benzamide]
15000 | O=C(NC(CO)CO)c1ccc(S(=O)(=O)Cc2c(O[C@H](Cn3ccnc3)c3ccccc3)ccc3c2CCCC3=O)cc1 [Compound 235, N-[2-Hydroxy-1-(hydroxymethyl)ethyl]-4-{[(2-{[(1S)-2-(1H-imidazol-1-yl)-1-phenylethyl]oxy}-5-oxo-5,6,7,8-tetrahydro-1-naphthalenyl)methyl]sulfonyl}benzamide]
200 | O=C(NC(CO)CO)c1cccc(S(=O)(=O)Cc2c(O[C@H](Cn3ccnc3)c3ccccc3)ccc3c2CCCC3=O)c1 [Compound 236, N-[2-Hydroxy-1-(hydroxymethyl)ethyl]-3-{[(2-{[(1S)-2-(1H-imidazol-1-yl)-1-phenylethyl]oxy}-5-oxo-5,6,7,8-tetrahydro-1-naphthalenyl)methyl]sulfonyl}benzamide]
280 | O=C(NC(CO)CO)c1ccccc1S(=O)(=O)Cc1c(O[C@H](Cn2ccnc2)c2ccccc2)ccc2c1CCCC2=O [Compound 237, N-[2-Hydroxy-1-(hydroxymethyl)ethyl]-2-{[(2-{[(1S)-2-(1H-imidazol-1-yl)-1-phenylethyl]oxy}-5-oxo-5,6,7,8-tetrahydro-1-naphthalenyl)methyl]sulfonyl}benzamide]
200 | O=C(NCc1ccco1)c1ccc(SCc2c(O[C@H](Cn3ccnc3)c3ccccc3)ccc3c2CCCC3=O)cc1 [Compound 238, N-(2-Furylmethyl)-4-{[(2-{[(1S)-2-(1H-imidazol-1-yl)-1-phenylethyl]oxy}-5-oxo-5,6,7,8-tetrahydro-1-naphthalenyl)methyl]sulfanyl}benzamide]
300 | O=C(NCc1ccco1)c1cccc(SCc2c(O[C@H](Cn3ccnc3)c3ccccc3)ccc3c2CCCC3=O)c1 [Compound 239, N-(2-Furylmethyl)-3-{[(2-{[(1S)-2-(1H-imidazol-1-yl)-1-phenylethyl]oxy}-5-oxo-5,6,7,8-tetrahydro-1-naphthalenyl)methyl]sulfanyl}benzamide]
200 | O=C(NCc1ccco1)c1ccccc1SCc1c(O[C@H](Cn2ccnc2)c2ccccc2)ccc2c1CCCC2=O [Compound 240, N-(2-Furylmethyl)-2-{[(2-{[(1S)-2-(1H-imidazol-1-yl)-1-phenylethyl]oxy}-5-oxo-5,6,7,8-tetrahydro-1-naphthalenyl)methyl]sulfanyl}benzamide]
260 | CC[C@H](CO)NC(=O)c1ccc(S(=O)(=O)Cc2c(O[C@H](Cn3ccnc3)c3ccccc3)ccc3c2CCCC3=O)cc1 [Compound 241, N-[(1R)-1-(Hydroxymethyl)propyl]-4-{[(2-{[(1S)-2-(1H-imidazol-1-yl)-1-phenylethyl]oxy}-5-oxo-5,6,7,8-tetrahydro-1-naphthalenyl)methyl]sulfonyl}benzamide]
200 | CC[C@H](CO)NC(=O)c1cccc(S(=O)(=O)Cc2c(O[C@H](Cn3ccnc3)c3ccccc3)ccc3c2CCCC3=O)c1 [Compound 242, N-[(1R)-1-(Hydroxymethyl)propyl]-3-{[(2-{[(1S)-2-(1H-imidazol-1-yl)-1-phenylethyl]oxy}-5-oxo-5,6,7,8-tetrahydro-1-naphthalenyl)methyl]sulfonyl}benzamide]
200 | CC[C@H](CO)NC(=O)c1ccccc1S(=O)(=O)Cc1c(O[C@H](Cn2ccnc2)c2ccccc2)ccc2c1CCCC2=O [Compound 243, N-[(1R)-1-(Hydroxymethyl)propyl]-2-{[(2-{[(1S)-2-(1H-imidazol-1-yl)-1-phenylethyl]oxy}-5-oxo-5,6,7,8-tetrahydro-1-naphthalenyl)methyl]sulfonyl}benzamide]
200 | CC[C@H](CO)NC(=O)c1ccccc1SCc1c(O[C@H](Cn2ccnc2)c2ccccc2)ccc2c1CCCC2=O [Compound 244, N-[(1R)-1-(Hydroxymethyl)propyl]-2-{[(2-{[(1S)-2-(1H-imidazol-1-yl)-1-phenylethyl]oxy}-5-oxo-5,6,7,8-tetrahydro-1-naphthalenyl)methyl]sulfanyl}benzamide]
200 | CC[C@H](CO)NC(=O)c1ccc(SCc2c(O[C@H](Cn3ccnc3)c3ccccc3)ccc3c2CCCC3=O)cc1 [Compound 245, N-[(1R)-1-(Hydroxymethyl)propyl]-4-{[(2-{[(1S)-2-(1H-imidazol-1-yl)-1-phenylethyl]oxy}-5-oxo-5,6,7,8-tetrahydro-1-naphthalenyl)methyl]sulfanyl}benzamide]
